# From patent publication US11766430B2, “Methods of using a phenoxypropylamine compound to treat pain” (Minerva Neurosciences, Inc., priority 2018, dated 2023)
# Values joined by “and” are separate entries in the source; they are usually repeats but may differ in a detail not shown here. Equal values may be shown once.
# Test system: carrageenan-induced mechanical hyperalgesia in rats
# Test: Carrageenan-induced mechanical hyperalgesia, paw pressure test, time course to 240 min (Example 2)
# Assay type: in vivo, male Sprague-Dawley rats
# Conditions: for Effect on injured paw withdrawal threshold vs vehicle-treated group (in words): time course 30-240 min
# Method: In this model, inflammation is induced by intraplantar injection of carrageenan (2%) into the right hindpaw of the rat. Three hours later, reaction thresholds are measured using the paw pressure test. Pressure is gradually applied to both hind paws (inflamed and control) of the rat, and reaction thresholds are determined as the pressure (g) required to elicit paw withdrawal or vocalization. Morphine (3 mg/kg, s.c.) was used as a positive control.
# The experiments in this study used fifty (50) male Sprague-Dawley rats (SPF status, Janvier, France), each weighing 204-260 grams. The rats were housed in a temperature (20-24° C.) and relative humidity (45%-65%) controlled room and acclimated to an artificial day/night cycle of 12 hours light (6.30 a.m. to 6.30 p.m.)/12 hours darkness. Rats had free access to sterilized tap water and were fed ad libitum with pelleted complete diet (reference A04, S.A.F.E.). Rats were housed 4 per cage (cages Type E) and were acclimated for a period of at least 5 days before any testing. Each rat was identified by tail markings. Based on the SPF status of the animal facilities, there is no reason to expect that contaminants were present in the food, water or bedding, at levels capable of interfering with the results of the tests.
# Pain Test: Static mechanical hyperalgesia was assessed using the Paw Pressure test or Randall & Selitto test (Randall, L. O. and Selitto, J. J., A method for measurement of analgesic activity on inflamed tissue, Arch Int Pharmacodyn, 1957(111): 409-419). This test requires the application of an increasing pressure on the hind paws between a flat surface and a blunt pointer. This test is usually used with animals with one hind paw inflamed by an injection or injured by ligation, and one normal hind paw, to evaluate drugs for analgesic action. The apparatus exerts a steadily increasing force and reaction threshold is determined as the pressure (g) required to elicit paw withdrawal and/or vocalization. In the experiment, animals were gently handled by the experimenter and static mechanical hyperalgesia was assessed. Each reaction threshold measurement was done for both hind paws.
# Five (5) experimental groups of 10 rats each were used. Each group was first injected with of 100 μL of a 2% carrageenan suspension in the plantar aspect of the right hindpaw. Three hours after carrageenan injection, paw withdrawal threshold was measured using the paw pressure test (Baseline). The 5 groups were then administered the following: • Group 1: vehicle (0.5% HPMC), i.p., solution (negative control); • Group 2: MIN-117 (0.01 mg/kg, i.p.) in 0.5% HPMC, suspension; • Group 3: MIN-117 (0.1 mg/kg, i.p.) in 0.5% HPMC, suspension; • Group 4: MIN-117 (1 mg/kg, i.p.) in 0.5% HPMC, suspension; and • Group 5: morphine (3 mg/kg, s.c.) in 0.9% NaCl, solution (positive control).
# After administering vehicle, MIN-117, or morphine, the antihyperalgesic effect of the compounds was evaluated using the paw pressure test at 0 min. (T0), 30 min., 60 min., 120 min., and 240 min.
# Vehicle and MIN-117 were administered intraperitoneally at 10 mL/kg. Morphine was subcutaneously administered at 5 mL/kg. Dosing and testing were performed in a random order by a blinded experimenter except for the morphine-treated group. Doses were expressed in terms of free active substance. Rats were sacrificed at the end of the experiment by CO2 inhalation pending subsequent removal by a certified company.
# Results were assessed as: the paw withdrawal threshold (mean±s.e.m.) in grams of contact pressure for each group, calculated from individual paw withdrawal thresholds; the percentage of variation of the paw withdrawal threshold calculated from the mean value of the vehicle-treated group; and/or the percentage of activity. To determine a statistical effect of the test substance and the reference substance, data were analyzed by a non-parametrical test. The significance level was p<0.05.
# [1] = 1 mg/kg i.p., T0 (baseline before dosing)
# [2] = 1 mg/kg i.p., T0 (baseline before dosing), hydrochloride
# [3] = 1 mg/kg i.p., T0 + 30 min, hydrochloride
structure (smiles),measurement,setting,value
"Cc1nnc(-c2cc3c(OC[C@@H](O)CN4CCC(c5ccc(Cl)c(Cl)c5)CC4)cccc3o2)o1.Cl [MIN-117, (2S)-1-(4-(3,4-dichlorophenyl)piperidin-1-yl)-3-((2-(5-methyl-1,3,4-oxadiazol-2-yl)benzofuran-4-yl)oxy)propan-2-ol hydrochloride]","Nociceptive threshold, injured paw (mean ± s.e.m.)","0.1 mg/kg i.p., T0 (baseline before dosing), hydrochloride",178 ± 5.5 g and 178 g
same,"% activity, injured paw","0.1 mg/kg i.p., T0 + 30 min",3%
same,"% variation vs control paw, injured paw","0.1 mg/kg i.p., T0 + 30 min",−48%
same,"% variation vs pre-drug threshold, injured paw","0.1 mg/kg i.p., T0 + 30 min",3%
same,"% variation vs vehicle-treated group, injured paw","0.1 mg/kg i.p., T0 + 30 min",3%
same,"Nociceptive threshold, control paw (mean ± s.e.m.)","0.1 mg/kg i.p., T0 + 30 min",354 g
same,"Nociceptive threshold, injured paw (mean ± s.e.m.)","0.1 mg/kg i.p., T0 + 30 min, hydrochloride",184 ± 5.0 g and 184 g
same,"% activity, injured paw","0.1 mg/kg i.p., T0 + 60 min",−5%
same,"% variation vs control paw, injured paw","0.1 mg/kg i.p., T0 + 60 min",−48%
same,"% variation vs pre-drug threshold, injured paw","0.1 mg/kg i.p., T0 + 60 min",1%
same,"% variation vs vehicle-treated group, injured paw","0.1 mg/kg i.p., T0 + 60 min",−4%
same,"Nociceptive threshold, control paw (mean ± s.e.m.)","0.1 mg/kg i.p., T0 + 60 min",348 g
same,"Nociceptive threshold, injured paw (mean ± s.e.m.)","0.1 mg/kg i.p., T0 + 60 min, hydrochloride",180 ± 7.9 g and 180 g
same,"% activity, injured paw","0.1 mg/kg i.p., T0 + 120 min",−5%
same,"% variation vs control paw, injured paw","0.1 mg/kg i.p., T0 + 120 min",−50%
same,"% variation vs pre-drug threshold, injured paw","0.1 mg/kg i.p., T0 + 120 min",0%
same,"% variation vs vehicle-treated group, injured paw","0.1 mg/kg i.p., T0 + 120 min",−4%
same,"Nociceptive threshold, control paw (mean ± s.e.m.)","0.1 mg/kg i.p., T0 + 120 min",354 g
same,"Nociceptive threshold, injured paw (mean ± s.e.m.)","0.1 mg/kg i.p., T0 + 120 min, hydrochloride",178 ± 7.6 g and 178 g
same,"% activity, injured paw","0.1 mg/kg i.p., T0 + 240 min",−4%
same,"% variation vs control paw, injured paw","0.1 mg/kg i.p., T0 + 240 min",−49%
same,"% variation vs pre-drug threshold, injured paw","0.1 mg/kg i.p., T0 + 240 min",1%
same,"% variation vs vehicle-treated group, injured paw","0.1 mg/kg i.p., T0 + 240 min",−3%
same,"Nociceptive threshold, control paw (mean ± s.e.m.)","0.1 mg/kg i.p., T0 + 240 min",350 g
same,"Nociceptive threshold, injured paw (mean ± s.e.m.)","0.1 mg/kg i.p., T0 + 240 min, hydrochloride",180 ± 8.4 g and 180 g
same,Effect on injured paw withdrawal threshold vs vehicle-treated group (in words),0.1 mg/kg i.p.,did not induce any significant increase
same,"% activity, injured paw",[1],3%
same,"% variation vs control paw, injured paw",[1],−50%
same,"% variation vs vehicle-treated group, injured paw",[1],3%
same,"Nociceptive threshold, control paw (mean ± s.e.m.)",[2],374.0 ± 12.7 g and 374 g
same,"Nociceptive threshold, injured paw (mean ± s.e.m.)",[2],188 ± 9.0 g and 188 g
same,"% activity, injured paw","1 mg/kg i.p., T0 + 30 min",1%
same,"% variation vs control paw, injured paw","1 mg/kg i.p., T0 + 30 min",−49%
same,"% variation vs vehicle-treated group, injured paw","1 mg/kg i.p., T0 + 30 min",1%
same,"Nociceptive threshold, control paw (mean ± s.e.m.)","1 mg/kg i.p., T0 + 30 min",356 g
same,"% variation vs pre-drug threshold, injured paw",[3],−4% and 4%
same,"Nociceptive threshold, injured paw (mean ± s.e.m.)",[3],180 ± 7.3 g and 180 g
same,"% activity, injured paw","1 mg/kg i.p., T0 + 60 min",14%
same,"% variation vs control paw, injured paw","1 mg/kg i.p., T0 + 60 min",−45%
same,"% variation vs pre-drug threshold, injured paw","1 mg/kg i.p., T0 + 60 min",13%
same,"% variation vs vehicle-treated group, injured paw","1 mg/kg i.p., T0 + 60 min",13%
same,"Nociceptive threshold, control paw (mean ± s.e.m.)","1 mg/kg i.p., T0 + 60 min",380 g
same,"Nociceptive threshold, injured paw (mean ± s.e.m.)","1 mg/kg i.p., T0 + 60 min, hydrochloride",212 ± 12.4 g and 212 g
same,"% activity, injured paw","1 mg/kg i.p., T0 + 120 min",29%
same,"% variation vs control paw, injured paw","1 mg/kg i.p., T0 + 120 min",−41%
same,"% variation vs pre-drug threshold, injured paw","1 mg/kg i.p., T0 + 120 min",23%
same,"Nociceptive threshold, control paw (mean ± s.e.m.)","1 mg/kg i.p., T0 + 120 min",392 g
same,"Nociceptive threshold, injured paw (mean ± s.e.m.)","1 mg/kg i.p., T0 + 120 min, hydrochloride",232 ± 7.4 g and 232 g
same,"% activity, injured paw","1 mg/kg i.p., T0 + 240 min",1%
same,"% variation vs control paw, injured paw","1 mg/kg i.p., T0 + 240 min",−49%
same,"% variation vs pre-drug threshold, injured paw","1 mg/kg i.p., T0 + 240 min",0%
same,"% variation vs vehicle-treated group, injured paw","1 mg/kg i.p., T0 + 240 min",1%
same,"Nociceptive threshold, control paw (mean ± s.e.m.)","1 mg/kg i.p., T0 + 240 min",370 g
same,"Nociceptive threshold, injured paw (mean ± s.e.m.)","1 mg/kg i.p., T0 + 240 min, hydrochloride",188 ± 6.1 g and 188 g
same,Effect on injured paw withdrawal threshold vs vehicle-treated group (in words),1 mg/kg i.p.,slight increase in the nociceptive threshold becoming significant 120 min. after injection
